From US20170368082A1, “FORMULATIONS OF BRINCIDOFOVIR” (priority 2016, published 2017)

Assay: Tissue distribution by quantitative whole-body autoradiography (QWBA)
Format: in vivo, male Sprague Dawley and Long-Evans rats
Conditions: for AUCall Ratio (PO/IV) / Cmax Ratio (PO/IV): Group 7 vs Group 4
Description: The study utilized 4 groups of male SD rats (albino), and 3 groups of male LE rats (pigmented); a total of 39 rats. All animals were obtained from Hilltop Lab Animals, Inc. (Scottdale, Pa.). […] Rats in Group 5 were administered a single 2-h IV infusion of [^14C]brincidofovir at a target dose of 2 mg/kg. […] Three dosing formulations (one for high dose IV, one for low dose IV, and one for PO dose) were prepared at QPS on the day of dosing. The IV formulation for Groups 1, 2, 3, and 4 contained a vehicle of 10 mM sodium phosphate buffer in 5% dextrose solution at pH 8.0(±0.1).
Each animal, at their respective termination time points, was euthanized for QWBA analysis immediately after blood collection. One rat per time point per Group was euthanized as listed below.
The blood samples were maintained on wet ice (approximately 4° C.) and then centrifuged to obtain plasma within 1 h of the blood collection time. Centrifuge settings were recorded in the study notebook. Duplicate aliquots of plasma (0.050 mL) were analyzed for radioactivity using direct counting by LSC, and residual plasma was stored at approximately −70° C. and was saved for possible future analysis under a separate study protocol. Residual red blood cells were discarded as radioactive waste.
The pinna, distal limbs, hair, and tail were removed from each frozen carcass and each frozen carcass was embedded in an aqueous suspension of approximately 2% (w/v) carboxymethylcellulose and frozen into a block. The blocks were stored at approximately −20° C. prior to sectioning. Each blocked carcass was mounted on the object stage of a cryomicrotome (Leica CM3600 Cryomacrocut, Nussloch, Germany and Vibratome 9800, St. Louis, Mo.) maintained at approximately −20° C. and internal standards (3), which were plasma fortified with [^14C]-glucose at one concentration (approximately 0.05 μCi/mL), were placed into the frozen blocks, prior to sectioning, and were used for section thickness quality control. A number of whole-body sections (approximately 40 μm thick) were taken in the sagittal plane at various levels of interest using a whole-body cryomicrotome set at −20° C. Sagittal sections (20-50 μm thick) of frozen carcasses were exposed to phosphor imaging plates. Regions of images in tissues were converted to concentrations using standards. All of the major tissues, organs, and biological fluids were represented.
Tissue concentration data was determined for the following tissues and/or contents: adipose (brown and white), adrenal gland, bile (in duct), blood (cardiac), bone, bone marrow, brain (cerebrum, cerebellum, medulla), cecum (and contents), large intestine (and contents), epididymis, esophagus, eye (uvea and lens), Harderian gland, heart, kidney (cortex and medulla), liver, lung, lymph node, pancreas, pituitary gland, prostate gland, salivary gland, seminal vesicles, skeletal muscle, skin (pigmented and non-pigmented), small intestine (and contents), stomach (gastric mucosa and contents), spleen, spinal cord, testis, thymus, thyroid, and urinary bladder (and contents).
The imaging plate and sections were placed in light-tight exposure cassettes, in a copper-lined lead safe, for a 4-day exposure at room temperature. […] Quantification was performed by image densitometry using MCD image analysis software (v. 7.0, Interfocus Imaging Ltd) and a standard curve constructed from the integrated response [i.e., Molecular Dynamics Counts per square millimeter (MDC/mm^2)] and the nominal concentrations of the ^14C-calibration standards. The concentrations of radioactivity were expressed as the μg equivalents of [^14C]brincidofovir per gram sample (μg equiv/g). A lower limit of quantification (LLOQ) was applied to the data (See section 6.7.4).
Tissue concentrations that fell below the LLOQ were identified as being below the quantification limit (BQL). Tissue areas that were not visualized on autoradiographic images were identified as no sample (NS) and reported as BQL.

CCCCCCCCCCCCCCCCOCCCOP(=O)(O)CO[C@H](CO)Cn1ccc(N)nc1=O [[^14C] brincidofovir]
Tissue Concentration (168 h) (Skin (non-pigmented), 2 h IV infusion 15 mg/kg, Group 4, LLOQ 0.036): 0.226 μg equiv/g | Tissue Concentration (168 h) (Skin (non-pigmented), PO 15 mg/kg, Group 7, LLOQ 0.034): BQL | AUCall (Skin (non-pigmented), PO 15 mg/kg, Group 7): 14.0275 μg equiv · h/g | AUCall Ratio (PO/IV) (Skin (pigmented), 15 mg/kg): 0.18 | Cmax Ratio (PO/IV) (Skin (pigmented), 15 mg/kg): 0.15 | AUCall (Skin (pigmented), 2 h IV infusion 15 mg/kg, Group 4): 95.5050 μg equiv · h/g | Tissue Concentration (168 h) (Skin (pigmented), 2 h IV infusion 15 mg/kg, Group 4, LLOQ 0.036): 0.09 μg equiv/g | Tissue Concentration (168 h) (Skin (pigmented), PO 15 mg/kg, Group 7, LLOQ 0.034): BQL | AUCall (Skin (pigmented), PO 15 mg/kg, Group 7): 17.0405 μg equiv · h/g | AUCall Ratio (PO/IV) (Small Intestine, 15 mg/kg): 8.25 | Cmax Ratio (PO/IV) (Small Intestine, 15 mg/kg): 6.45 | AUCall (Small Intestine, 2 h IV infusion 15 mg/kg, Group 4): 1160.650 μg equiv · h/g | Tissue Concentration (168 h) (Small Intestine, 2 h IV infusion 15 mg/kg, Group 4, LLOQ 0.036): 0.339 μg equiv/g | Tissue Concentration (168 h) (Small Intestine, PO 15 mg/kg, Group 7, LLOQ 0.034): 5.867 μg equiv/g | AUCall (Small Intestine, PO 15 mg/kg, Group 7, 15 mg/kg): 9575.18 μg equiv · h/g | AUCall Ratio (PO/IV) (Spinal Cord, 15 mg/kg): 0.02 | Cmax Ratio (PO/IV) (Spinal Cord, 15 mg/kg): 0.04 | AUCall (Spinal Cord, 2 h IV infusion 15 mg/kg, Group 4): 5.7830 μg equiv · h/g | Tissue Concentration (168 h) (Spinal Cord, 2 h IV infusion 15 mg/kg, Group 4, LLOQ 0.036): BQL | Tissue Concentration (168 h) (Spinal Cord, PO 15 mg/kg, Group 7, LLOQ 0.034): BQL | AUCall (Spinal Cord, PO 15 mg/kg, Group 7): 0.1110 μg equiv · h/g | AUCall Ratio (PO/IV) (Spleen, 15 mg/kg): 0.27 | Cmax Ratio (PO/IV) (Spleen, 15 mg/kg): 0.18 | AUCall (Spleen, 2 h IV infusion 15 mg/kg, Group 4): 642.3590 μg equiv · h/g | Tissue Concentration (168 h) (Spleen, 2 h IV infusion 15 mg/kg, Group 4, LLOQ 0.036): 0.892 μg equiv/g | Tissue Concentration (168 h) (Spleen, PO 15 mg/kg, Group 7, LLOQ 0.034): 0.274 μg equiv/g | AUCall (Spleen, PO 15 mg/kg, Group 7): 172.2208 μg equiv · h/g | AUCall Ratio (PO/IV) (Stomach (mucosa), 15 mg/kg): 1.29 | Cmax Ratio (PO/IV) (Stomach (mucosa), 15 mg/kg): 4.75 | AUCall (Stomach (mucosa), 2 h IV infusion 15 mg/kg, Group 4): 70.2310 μg equiv · h/g | Tissue Concentration (168 h) (Stomach (mucosa), 2 h IV infusion 15 mg/kg, Group 4, LLOQ 0.036): 0.069 μg equiv/g | Tissue Concentration (168 h) (Stomach (mucosa), PO 15 mg/kg, Group 7, LLOQ 0.034): 0.042 μg equiv/g | AUCall (Stomach (mucosa), PO 15 mg/kg, Group 7): 90.7575 μg equiv · h/g | AUCall Ratio (PO/IV) (Testis, 15 mg/kg): 0.39 | Cmax Ratio (PO/IV) (Testis, 15 mg/kg): 0.17 | AUCall (Testis, 2 h IV infusion 15 mg/kg, Group 4): 77.2835 μg equiv · h/g | Tissue Concentration (168 h) (Testis, 2 h IV infusion 15 mg/kg, Group 4, LLOQ 0.036): 0.098 μg equiv/g | Tissue Concentration (168 h) (Testis, PO 15 mg/kg, Group 7, LLOQ 0.034): 0.041 μg equiv/g | AUCall (Testis, PO 15 mg/kg, Group 7): 30.3920 μg equiv · h/g | AUCall Ratio (PO/IV) (Thymus, 15 mg/kg): 0.13 | Cmax Ratio (PO/IV) (Thymus, 15 mg/kg): 0.11 | AUCall (Thymus, 2 h IV infusion 15 mg/kg, Group 4): 92.4355 μg equiv · h/g | Tissue Concentration (168 h) (Thymus, 2 h IV infusion 15 mg/kg, Group 4, LLOQ 0.036): 0.1 μg equiv/g | Tissue Concentration (168 h) (Thymus, PO 15 mg/kg, Group 7, LLOQ 0.034): BQL | AUCall (Thymus, PO 15 mg/kg, Group 7): 12.0843 μg equiv · h/g | AUCall Ratio (PO/IV) (Thyroid, 15 mg/kg): 0.13 | Cmax Ratio (PO/IV) (Thyroid, 15 mg/kg): 0.13 | AUCall (Thyroid, 2 h IV infusion 15 mg/kg, Group 4): 238.0230 μg equiv · h/g | Tissue Concentration (168 h) (Thyroid, 2 h IV infusion 15 mg/kg, Group 4, LLOQ 0.036): 0.459 μg equiv/g | Tissue Concentration (168 h) (Thyroid, PO 15 mg/kg, Group 7, LLOQ 0.034): 0.038 μg equiv/g | AUCall (Thyroid, PO 15 mg/kg, Group 7): 31.3395 μg equiv · h/g | AUCall Ratio (PO/IV) (Urinary Bladder, 15 mg/kg): 0.52 | Cmax Ratio (PO/IV) (Urinary Bladder, 15 mg/kg): 0.16 | AUCall (Urinary Bladder, 2 h IV infusion 15 mg/kg, Group 4): 215.5480 μg equiv · h/g | Tissue Concentration (168 h) (Urinary Bladder, 2 h IV infusion 15 mg/kg, Group 4, LLOQ 0.036): BQL | Tissue Concentration (168 h) (Urinary Bladder, PO 15 mg/kg, Group 7, LLOQ 0.034): 0.076 μg equiv/g | AUCall (Urinary Bladder, PO 15 mg/kg, Group 7): 111.2445 μg equiv · h/g
